According to patent US10071042B2, “External dermatological agent for anti-ageing” (Hayashibara Co., Ltd., priority 2014, dated 2018):
Marks after values point to notes of the source that are not given here.

What was measured:
[1] = Photostability under fluorescent lamp, HPLC residual percentage (Experiment 10); type: physicochemical; details: fluorescent lamp about 4,000 lux, 28° C.
Protocol: To 25 mg of each of the test substances in Table 13 was added each of Mcllvain buffers adjusted to different pHs to give a total volume of 50 mL and distributed to transparent glass screw bottles (5 mL) with plastic screw caps equal to the number of the test substances by 2.0 mL. Under a fluorescent lamp with about 4,000 lux at 28° C., the glass screw bottles were allowed to lay along. Sodium adenosine N1-oxide 5′-phosphate and 5′-glucosyl adenosine N1-oxide were respectively analyzed on HPLC at the initiation of the test and at eight weeks after initiating the experiment, and at the initiation of the test and at two weeks intervals up to eight weeks after the initiation, followed by taking out one of the bottles for HPLC analysis. The analysis was repeated three times and the average residual percentage of each test substance was calculated based on the area ratio against the peak area for each test substance upon HPLC chromatogram at the initiation of the experiment. […] Equation: Residual percentage (%) of test substance=[(Average peak area after a prescribed time lapse at respective pHs for each test substance)/(Average peak area at the initiation of experiment at respective pHs for each test substance)]×100

[2] = system: elastin; assay: Elastin production of normal human dermal fibroblasts, colorimetric kit (Experiment 4); type: cell-based; details: 2 days, control = 100%
Protocol: Normal human dermal fibroblasts (NHDF), which had been suspended in a Dulbecco's Modified Eagle Medium supplemented with 10% fetal calf serum to give a cell concentration of 3×10^5 cells/mL, were placed in 24-well plates by 0.5 mL/well and cultured for one day. The cultured cells were washed with Dulbecco's phosphate buffered saline and cultured for another two days in a Dulbecco's Modified Eagle Medium, supplemented with any one of the test substances in Table 5 at respective concentrations shown in the table, to induce elastin synthesis. Thereafter, each culture supernatant was collected, and the remaining cells were washed with one milliliter of Dulbecco's phosphate buffered saline, added with 0.1 mL of 0.25% trypsin and ethylenediaminetetraacetate, followed by incubation at 37° C. for two minutes to detach the cells from the plates. A half milliliter of Dulbecco's phosphate buffered saline was added to each plate, and the resulting cell suspensions were collected in a 1.5-mL tube which was then subjected to centrifugation (3,000×g for five minutes) to collect the cells. Elastin was quantified with a colorimetric determination kit commercialized by Biocolor Ltd., […]. The previously collected supernatant was used to suspend the collected cells, to which was then added 0.16 mL of 1 M oxalic acid, a reagent affixed to the kit, and incubated at 100° C. for one hour to solubilize elastin. To the solubilized elastin placed in a container was added 0.66 mL of an elastin precipitant as a reagent affixed to the kit, mixed for 15 min while repeatedly reversing the container, and centrifuged at 10,000×g for 10 min to precipitate proteins. A half milliliter of a dye, as a reagent affixed to the kit, was added to the resulting precipitate, followed by repeatedly reversing the container for 90 min and centrifuged at 10,000×g for 10 min to collect sediments bound with the dye. Thereafter, the collected sediments were added with 0.25 mL of a dye separator as a reagent affixed to the kit, and mixed for one hour while repeatedly reversing a container with the resulting mixture, followed by determining the absorbance of the resulting mixture at a wavelength of 490 nm and calculating the amount of elastin per well. A calibration curve was generated with an accessory for the kit. A control system was provided by similarly treating normal human dermal fibroblasts (NHDF) without adding any test substance and determined for its absorbance at a wavelength of 490 nm. Regarding the absorbance as 100%, the production level of elastin of each test substance was comparatively evaluated based on the following equation. Equation: Production level of elastin (relative value (%))=[(Absorbance of a sample with any one of test substances)/(Absorbance of control)]×100
(§1) The experiment was repeated three times, and the data was compared to that of control with the Dunnett's multiple comparisons test. The symbol “*” means a level of significance of p<0.01.

[3] = system: normal human dermal fibroblasts (NHDF); assay: Number of cells, Alamar Blue (Experiment 4); type: cell-based; details: control = 100%
Protocol: To confirm cell proliferation under the above conditions tested, normal human dermal fibroblasts (NHDF), which had been suspended in a Dulbecco's Modified Eagle Medium supplemented with 10% fetal calf serum to give a cell concentration of 2.5×10^5 cells/mL, were placed in 96-well microplates by 0.1 mL/well and cultured for one day. The resulting cells were washed with Dulbecco's phosphate buffered saline and cultured for another two days in a Dulbecco's Modified Eagle Medium supplemented with any one of the test substances in Table 5. The culture supernatants were removed from the microplates, to which were then added 0.2 mL/well of a dilution of “Alamar Blue” diluted with the same culture medium as used in the above by 10 folds to react with the cells at 37° C. for two hours, followed by measuring the fluorescent intensity of the cells at an excitation wavelength of 544 nm and a fluorescent wavelength of 590 nm and obtaining the variation of the number of cells with the addition of any one of the test substances based on the fluorescent intensity of a control system, which had been treated similarly as in the above except for not adding any of the test substances, being regarded as 100%.
as §1

[4] = system: normal human epidermal keratinocytes; assay: Number of cells, methylene blue (Experiment 6); type: cell-based; details: for Number of cells (%): control = 100%
Protocol: The number of proliferated cells was determined with methylene blue and regarded as 100% for use in calculating the variation of cells with any one of the test substances.

[5] = pH 4 to 5, at the initiation of experiment
[6] = pH 6 to 7, at the initiation of experiment
[7] = pH 8 to 9, at the initiation of experiment

Residual percentage (%) [1, 5] | Residual percentage (%) ([1]; pH 4 to 5, eight weeks) | Residual percentage (%) ([1]; pH 4 to 5, four weeks) | Residual percentage (%) ([1]; pH 4 to 5, six weeks) | Residual percentage (%) ([1]; pH 4 to 5, two weeks) | Residual percentage (%) [1, 6] | Residual percentage (%) ([1]; pH 6 to 7, eight weeks) | Residual percentage (%) ([1]; pH 6 to 7, four weeks) | Residual percentage (%) ([1]; pH 6 to 7, six weeks) | Residual percentage (%) ([1]; pH 6 to 7, two weeks) | Residual percentage (%) [1, 7] | Residual percentage (%) ([1]; pH 8 to 9, eight weeks) | Residual percentage (%) ([1]; pH 8 to 9, four weeks) | Residual percentage (%) ([1]; pH 8 to 9, six weeks) | Residual percentage (%) ([1]; pH 8 to 9, two weeks) | Compound | Production level of elastin (%) ([2]; 10 μM) | Number of cells (%) ([3]; 10 μM) | Production level of elastin (%) ([2]; 1 μM) | Production level of elastin (%) ([2]; 4 μM) | Number of cells (%) ([3]; 1 μM) | also measured
100.0% | 9.8% | 27.3% | 9.7% | 51.7% | 100.0% | 34.3% | 57.7% | 40.8% | 79.1% | 100.0% | 24.0% | 47.8% | 35.4% | 70.7% | 5′-α-glucosyl adenosine N1-oxide [5′-α-Glucosyladenosine N1-oxide] | – | – | – | – | – | Residual percentage (%) ([1]; pH 4 to 5, eight weeks, listed as 5′-glucosyl adenosine N1-oxide): about 10%
– | – | – | – | – | – | – | – | – | – | – | – | – | – | – | Nc1ncnc2c1ncn2[C@@H]1O[C@H](COP(=O)(O)O)[C@@H](O)[C@H]1O [Adenosine 5′-phosphate, reference compound] | 114.4% | 101.0% | – | – | – | Production level of elastin (%) ([2]; 40 μM): 117.2%; Production level of elastin (%) ([2]; 100 μM): 120.0* %; Number of cells (%) ([3]; 40 μM): 102.0%; Number of cells (%) ([3]; 100 μM): 99.0%
100.0% | 24.6% | 47.2% | 25.2% | 68.8% | 100.0% | 66.2% | 81.6% | 71.3% | 90.6% | 100.0% | 63.1% | 77.2% | 68.2% | 83.7% | Nc1c2ncn([C@@H]3O[C@H](CO)[C@@H](O)[C@H]3O)c2nc[n+]1[O-] [Adenosine N1-oxide, adenosine N1-oxide] | 118.4* % | 94.0% | 108.8% | 114.8% | 99.0% | Production level of elastin (%) ([2]; 10 μM, listed as adenosine N1-oxide): about 120%; Residual percentage (%) ([1]; pH 4 to 5, eight weeks, listed as adenosine N1-oxide): about 25%; Number of cells (%) ([3]; 4 μM): 98.0%

Compound | Residual percentage (%) [1, 5] | Residual percentage (%) ([1]; pH 4 to 5, eight weeks) | Residual percentage (%) ([1]; pH 4 to 5, four weeks) | Residual percentage (%) ([1]; pH 4 to 5, six weeks) | Residual percentage (%) ([1]; pH 4 to 5, two weeks) | Residual percentage (%) [1, 6] | Residual percentage (%) ([1]; pH 6 to 7, eight weeks) | Residual percentage (%) ([1]; pH 6 to 7, four weeks) | Residual percentage (%) ([1]; pH 6 to 7, six weeks) | Residual percentage (%) ([1]; pH 6 to 7, two weeks) | Residual percentage (%) [1, 7] | Residual percentage (%) ([1]; pH 8 to 9, eight weeks) | Residual percentage (%) ([1]; pH 8 to 9, four weeks) | Residual percentage (%) ([1]; pH 8 to 9, six weeks) | Residual percentage (%) ([1]; pH 8 to 9, two weeks) | Production level of elastin (%) ([2]; 10 μM) | Number of cells (%) ([3]; 10 μM) | Production level of elastin (%) ([2]; 1 μM) | Production level of elastin (%) ([2]; 4 μM) | Number of cells (%) ([3]; 1 μM) | also measured
Nc1c2ncn([C@@H]3O[C@H](COP(=O)([O-])O)[C@@H](O)[C@H]3O)c2nc[n+]1[O-].[Na+] [Sodium adenosine N1-oxide 5′-phosphate, sodium adenosine N1-oxide 5′-phosphate] | 100.0% | 93.0% | – | – | – | 100.0% | 88.8% | – | – | – | 100.0% | 96.9% | – | – | – | 121.2* % | 101.0% | 98.0% | 105.2% | 104.0% | Production level of elastin (%) ([2]; 10 μM, listed as sodium adenosine N1-oxide 5′-phosphate): about 120%; Number of cells (%) ([3]; 4 μM): 104.0%; Number of cells (%) ([4]; 10 μM): 111.4%; Number of cells (%) ([4]; 20 μM): 103.6%; Number of cells (%) ([4]; 50 μM): 100.6%; influence on cell proliferation ([4]; 10 to 50 μM): No influence on cell proliferation
